From publication PMC5519633, “Endolysosomal targeting of a clinical chlorin photosensitiser for light-triggered delivery of nano-sized medicines” (Scientific Reports, 2017)
Blank lines part the entries; values can stand above or below the compound they belong to.

What was measured:
[1] = standard reference compound in deuterated methanol; cited from earlier work
Source text: For the determination of the singlet oxygen quantum yield (ΦΔ), deuterated methanol (CD3OD) was used since singlet oxygen has a relatively long lifetime in deuterated solvents. To confirm that the methanolic solutions of the conjugates and chlorin e6 at the concentrations studied were monomeric, absorption ...

KB cells = assay: In vitro PDT/PCI phototoxicity with saporin, MTT assay; assay type: cell-based, human; details: saporin 20 nM, without photosensitiser
[2] = in dimethylformamide; cited from earlier work
[3] = Singlet oxygen quantum yield by time-resolved 1270 nm phosphorescence in deuterated methanol; assay type: physicochemical; details: aerated deuterated methanol (CD3OD); 532 nm laser excitation; absorbance matched to Rose Bengal reference; zero-time intercept analysis; estimated experimental error +/- 0.06
[4] = tested on: human pharyngeal FaDu carcinoma cells; details: cited from earlier work
Source text: The lower uptake of the free chlorin is consistent with its lower PDT efficacy compared to the conjugates, as discussed below. […] Figure 3H and I show sequential images ...

[5] = Absorption spectra as a function of concentration (test for aggregation); assay type: physicochemical; details: methanolic solution; up to 8 μM; 398 nm for conjugates, 399 nm for chlorin e6
Experimental: For the determination of the singlet oxygen quantum yield (ΦΔ), deuterated methanol (CD3OD) was used since singlet oxygen has a relatively long lifetime in deuterated solvents. To confirm that the methanolic solutions of the conjugates and chlorin e6 at the concentrations studied were monomeric, absorption spectra were recorded as a function of concentration. […] The singlet oxygen quantum yields in deuterated methanol were measured using a standard reference compound, Rose Bengal (ΦΔ = 0.76)[43] using matched reference solution absorbances at the laser wavelength of 532 nm. Using standard zero-point intercept analysis of the singlet oxygen decays, the quantum yield of chlorin e6 was calculated as 0.67, which is in good agreement with the literature, as reviewed by Redmond et al.[43]. Morjzisova et al. reported the quantum yields of several chlorins in dimethylformamide and measured a value of 0.63 for chlorin e6, and observed a similar value for another clinical chlorin PDT photosensitiser, mTHPC (0.68) and disulfonated tetraphenyl chlorin (0.66)[44].
For the singlet oxygen studies, absorption spectra of the compounds were measured using a Perkin-Elmer Lambda 25 UV/Vis spectrometer (Perkin-Elmer, Beaconsfield, UK) with quartz cuvettes. […]

MC28 cells [6] = assay: Cellular uptake and subcellular localisation, confocal microscopy with LysoTracker Green; assay type: cell-based, rat; details: same concentration and image intensity scale as the conjugates
Experimental: Cells were seeded in small Petri dishes, with a glass cover slip bottom window for use with an inverted microscope (Fluorodish, World Precision Inst. UK), and allowed to attach overnight. Cells were incubated for 24 h with the compounds (2.5 µM). Afterwards, culture medium was removed and replaced with fresh medium containing Lysotracker Green (100 nM) for 30 min before microscope imaging. Cells were washed 2 times with PBS and incubated with drug-free/phenol red-free medium for confocal imaging using an Olympus Laser scanning confocal microscope (FluoView FV1000, 60x magnification, NA 1.20, Olympus UK Ltd, Essex, UK). Fluorescence from the photosensitiser was recorded within the range of 620–720 nm using a 405 nm laser for the excitation. For LysoTracker Green, cells were illuminated at 488 nm and the fluorescence signal was recorded at 500–550 nm. Colocalisation analysis and image processing of the 16-bit images were performed with ImageJ software.

MC28 cells [7] = assay: In vitro PDT phototoxicity, MTT assay; assay type: cell-based, rat; details: 3.2 µM, 18 h incubation, 5 min illumination, 420 nm, 7 mW cm-2, MTT 48 h after light, three independent experiments
[8] = cited from earlier work
Source text: The rationale for selecting chlorin e6 as the photosensitiser for this study on PCI was based on its favourable photosensitising properties but also on its poor lysosomal localisation[40] and bioavailability. The cellular uptake and membrane transport of chlorin e6 has been studied in detail in relation to its acid-base properties. The structure of chlorin e6 contains three adjacent carboxylic acid functions with pKa7.9–8.3[47]which are thus only partially ionised at physiological pH leading to poor aqueous solubility, which complicates systemic administration. At lower pH, as is typical for t ...

Compound: O=C([O-])c1c(Cl)c(Cl)c(Cl)c(Cl)c1-c1c2cc(I)c(=O)c(I)c-2oc2c(I)c([O-])c(I)cc12.[Na+].[Na+] [Rose Bengal]
singlet oxygen quantum yield (ΦΔ) of reference standard [1]: 0.76

Compound: saporin
reduction in viability, saporin alone (KB cells): < 20%

Compound: Oc1cccc(-c2c3nc(c(-c4cccc(O)c4)c4ccc([nH]4)c(-c4cccc(O)c4)c4nc(c(-c5cccc(O)c5)c5ccc2[nH]5)CC4)C=C3)c1 [mTHPC]
singlet oxygen quantum yield [2]: 0.68

singlet oxygen quantum yield (ΦΔ) [3]: 0.67
peak absorbance of the Soret band versus concentration (monomeric or aggregated) [5]: linear
Compound: C=Cc1c(C)c2cc3nc(c(CC(=O)O)c4[nH]c(cc5nc(cc1[nH]2)C(C)=C5CC)c(C)c4C(=O)O)[C@@H](CCC(=O)O)[C@@H]3C [chlorin e6]
singlet oxygen quantum yield [2]: 0.63
cellular uptake of free chlorin e6 compared to dendrimer conjugates of chlorin e6 [4]: an order of magnitude lower
cellular uptake, intracellular fluorescence relative to the conjugates (MC28 cells [6]): much lower fluorescence
loss of viability (PDT) (MC28 cells [7]): less than 20%
pKa of the three carboxylic acid functions [8]: 7.9–8.3

Compound: disulfonated tetraphenyl chlorin
singlet oxygen quantum yield [2]: 0.66
